Laboratory results published in article PMC4770324 (Journal of Medicinal Chemistry, 2016).

Assay: Chemical stability on storage

O=c1[nH]cnc2c(-n3cc(CCN4CCC(c5cc(F)cc(F)c5)CC4)cn3)nccc12 [Compound 54l]
chemical stability in air: chemical instability
